# In patent publication US6610483B1, “Methods for identifying cellular responses attributable to signaling molecule inhibition and inhibitors thereof” (priority 1999, dated 2003):
# Experiments:
# [1] = tested on: wild-type yeast cells with CDC28; experiment: DNA chip array of gene transcripts in wild-type yeast cells exposed to the mutant inhibitor; format: cell-based; conditions: 500 nM, change of 2 fold or more
# Description: Yeast cells expressing a functionally silent, mutant form of the wild-type protein kinase CDC28, termed CDC28 F88G, were prepared by the methods of standard yeast genetics as described in “Guide to Yeast Genetics and Molecular Biology” (Methods in Enzymology, Vol.194) by Christine Guthrie, Gerald R. Fink (Editor) Vol 194 (February 1991) Academic Press. A selective inhibitor of the mutant kinase, with little effect on the wild-type kinase, was prepared and identified using the methods described in Application Serial No. 60/115,340. Using DNA chip array technology, the levels of 6100 gene transcripts were quantitated in mRNA isolated from yeast cells expressing either wild type or F88G (mutant) CDC28 protein kinase either untreated or treated for treated for 30 minutes or 120 minutes with 500 nanomolar (nM) 4-amino-1-(tert-butyl)-3-(1′-naphthylmethyl)pyrazolo[3,4-d]pyrimidine dissolved in DMSO (500) or simply DMSO (DMSO). A change is defined as 2 fold increase or decrease in a gene transcript that is present or absent only in a particular sample. Methods for measuring transcripts were those described in Wodicka L, Dong H, Mittmann M, Ho M H, Lockhart D J, Genome-wide expression monitoring in Saccharomyces cerevisiae, Nat. Biotechnol. (1997) 15:1359-67. […] Effects of the inhibitor were evaluated at 30 and 120 minutes. […]
# mutant CDC28 F88G cells = experiment: DNA chip array of gene transcripts in mutant CDC28 F88G yeast cells exposed to the mutant inhibitor; format: cell-based; conditions: 500 nM
# Description: Yeast cells expressing a functionally silent, mutant form of the wild-type protein kinase CDC28, termed CDC28 F88G, were prepared by the methods of standard yeast genetics as described in “Guide to Yeast Genetics and Molecular Biology” (Methods in Enzymology, Vol.194) by Christine Guthrie, Gerald R. Fink (Editor) Vol 194 (February 1991) Academic Press. A selective inhibitor of the mutant kinase, with little effect on the wild-type kinase, was prepared and identified using the methods described in Application Serial No. 60/115,340. Using DNA chip array technology, the levels of 6100 gene transcripts were quantitated in mRNA isolated from yeast cells expressing either wild type or F88G (mutant) CDC28 protein kinase either untreated or treated for treated for 30 minutes or 120 minutes with 500 nanomolar (nM) 4-amino-1-(tert-butyl)-3-(1′-naphthylmethyl)pyrazolo[3,4-d]pyrimidine dissolved in DMSO (500) or simply DMSO (DMSO). A change is defined as 2 fold increase or decrease in a gene transcript that is present or absent only in a particular sample. Methods for measuring transcripts were those described in Wodicka L, Dong H, Mittmann M, Ho M H, Lockhart D J, Genome-wide expression monitoring in Saccharomyces cerevisiae, Nat. Biotechnol. (1997) 15:1359-67. The results and comparisons among the gene transcripts are shown in FIGS. 1-4, with the identities of the particular gene transcripts listed in FIG. 5. Non-specific drug effects are the result of the exposure of the inhibitor to wild-type cells. The mutation effects are indicated by the alterations between the expression pattern between the mutant cells and the wild-type cells, both in the absence of inhibitor. The results of specific inhibition are shown by the differences between the mutant cells before and after exposure to the inhibitor, including increases and decreases. Effects of the inhibitor were evaluated at 30 and 120 minutes. These two time points were chosen based on the known time interval for yeast cell cycle progression which is about 90 minutes. Thus one time point shorter than the full cell cycle progression time (30 minutes) and one time point longer than […] (120 minutes) were chosen. The comparisons of results are shown in FIGS. 1-4, and the details of the particular transcripts altered in FIG. 5.
# PDGFR = conditions: cited from earlier work
structure (smiles),measurement,setting,value
"CC(C)(C)n1nc(Cc2cccc3ccccc23)c2c(N)ncnc21 [4-amino-1-(tert-butyl)-3-(1′-naphthylmethyl)pyrazolo[3,4-d]pyrimidine]",genes altered (non-specific drug effects),[1]; 30 minute exposure,7 genes
same,genes altered (non-specific drug effects),[1]; 120 minute exposure,3 genes
same,genes altered,mutant CDC28 F88G cells; 30 minute exposure,85 genes
same,genes decreased more than two-fold,mutant CDC28 F88G cells; 30 minute exposure,74 genes
same,genes increased more than two-fold,mutant CDC28 F88G cells; 30 minute exposure,11 genes
same,genes altered,mutant CDC28 F88G cells; 120 minute exposure,186 genes
same,genes decreased,mutant CDC28 F88G cells; 120 minute exposure,100 genes
same,genes increased,mutant CDC28 F88G cells; 120 minute exposure,86 genes
